Our source for the cytotoxicity values is ChEMBL document CHEMBL3507680, “University of Dundee, Gates Library screen for HepG2 cell viability”.

The nature of this data set: Human HepG2 cell viability assay in 384 well format. It counts as toxicity, cell-based. More on the design: dose 125 nL, time 70.5 hour; cytotoxicity at 70.5 h: concentration not given beside the values. Conditions: HepG2 cells, read-out: Inhibition.
As to `CCC1=N[C@@]2(CC[C@@H]3CN(Cc4ccc(Cl)cc4)C[C@@H]32)C(=O)N1C`, the cytotoxicity at 70.5 h is -15.2%.

In the case of `N#Cc1cccc(CN2C[C@@H]3CN(c4ncccn4)C[C@@H]3C2)c1`, the cytotoxicity at 70.5 h is -6.36%.

In the case of `COc1cc2[nH]c(=O)c(CN3CCCC(CO)C3)cc2c(OC)c1OC` (centres undefined), the cytotoxicity at 70.5 h was -13.1%.

Turning to `Cn1cc(CCNC(=O)NCc2ccc3c(c2)OCCO3)cn1`, the cytotoxicity at 70.5 h was 2.32%.

On to `O=C1CCC(=O)c2oc3ccc(Cl)cc3c2N1`, for which the cytotoxicity at 70.5 h is -14%.

In the case of `Cc1cccc(C2(C(=O)NS(=O)(=O)c3cnn(C)c3)CCCC2)c1`, the cytotoxicity at 70.5 h is -1.9%.

Turning to `CCCNC(=O)c1cc2c(nc1O)CCC(C)C2` (centres undefined), the cytotoxicity at 70.5 h is 22.8%.

For the compound `O=C(CCc1ccsc1)N1CCC(N2CCNC2=O)CC1`, the cytotoxicity at 70.5 h was determined as 3.98%.

With `c1ncc2c(n1)CN(c1ncnc3[nH]ccc13)CC2`, the cytotoxicity at 70.5 h is -4.47%.

Take `CCN1Cc2nc(OC)c(CNC(=O)CCC3CCCC3)cc2C1=O`: the cytotoxicity at 70.5 h was -11.1%.

For the compound `CC(C)Cc1ncc2c(n1)CN(c1nc(N(C)C)nc3c1CCCC3)C2`, the cytotoxicity at 70.5 h is -0.189%.

Turning to `Cc1nc(C)n(CC2CCCCN2Cc2ncc(C(C)(C)C)o2)n1` (centres undefined), the cytotoxicity at 70.5 h was 8%.

Regarding `CCC(C)(CC(=O)O)NC(=O)Cc1ccccc1F` (centres undefined), the cytotoxicity at 70.5 h came out at 26.6%.

`COc1cc(C2SC(C)=Nc3c2c(=O)[nH]n3C2CCCC2)ccc1O` (centres undefined): the cytotoxicity at 70.5 h is -9.1%.

`CCCc1nc(C(=O)N2C[C@H](CO)C[C@H](CN3CCOCC3)C2)cs1`: the cytotoxicity at 70.5 h was -8.72%.

As for `Cc1ccc(C)c(C(O)CN(C)Cc2nnc3ccccn23)c1` (centres undefined), the cytotoxicity at 70.5 h was found to be 9.37%.

As to `CC(C)c1cc(C(=O)N2CCN(c3ccc(F)c(Cl)c3)CC2)n(C)n1`, the cytotoxicity at 70.5 h was -4.92%.

`N#CC1(C(=O)N2CCCN(Cc3cscn3)CC2)CCCCC1`: the cytotoxicity at 70.5 h turned out to be 0.606%.

With `COc1ccc2cc(-c3n[nH]cc3CN3CCSCC3)ccc2c1`, the cytotoxicity at 70.5 h is 0.45%.

On to `CN(Cc1nc(CC2CC2)no1)CC1Cc2ccccc2O1` (centres undefined), for which the cytotoxicity at 70.5 h was -6.88%.

`COc1cccc(-c2n[nH]cc2CNC2CCCN(C)C2)c1` (centres undefined): the cytotoxicity at 70.5 h was -5.83%.

Consider `Cc1nc(C(C)(C)C)sc1C(=O)NCCn1cccn1`, for which the cytotoxicity at 70.5 h was -0.966%.

For the compound `CCN1CCC(N2CCN(c3cc(-c4nc(C)no4)ccn3)CC2)CC1`, the cytotoxicity at 70.5 h is 11.7%.

Consider `N#Cc1ccc(S(=O)(=O)N2CSCC2C(=O)NCC(F)(F)F)cc1` (centres undefined), for which the cytotoxicity at 70.5 h was -5.51%.

As for `Cn1cc(CN2CCC(F)(F)C3(CCN(c4ncc(F)cn4)C3)C2)cn1` (centres undefined), the cytotoxicity at 70.5 h was -13.8%.

For the compound `CNc1cc(N2CCCC2CNCc2cccnc2C)ncn1` (centres undefined), the cytotoxicity at 70.5 h is 4.98%.

Turning to `CC(C)(C)OC(=O)N1CCC(C(=O)NCc2cc3ccccc3[nH]2)C1` (centres undefined), the cytotoxicity at 70.5 h is -2.83%.

For `c1cnc(-c2nn3c(CN4CCCCCC4)nnc3s2)cn1`, the cytotoxicity at 70.5 h is -8.05%.

In the case of `Cc1nc(Nc2cnccn2)cc(C2CCCN(C(C)C)C2)n1` (centres undefined), the cytotoxicity at 70.5 h was -8.23%.

Take `CNC(=O)[C@@H](c1ccccc1OC)N1CCC[C@H]1C(=O)NC1CC1`: the cytotoxicity at 70.5 h was -1.71%.

Take `Cn1cnnc1C1CCCN(C(=O)c2n[nH]c3ccccc23)C1` (centres undefined): the cytotoxicity at 70.5 h came to 4.38%.

As to `c1ccc2oc(CCCN3CCOC(Cn4cncn4)C3)nc2c1` (centres undefined), the cytotoxicity at 70.5 h amounted to 14.6%.

`COc1ccc(C2CC(=O)NCc3nc(N(C)C)sc32)c(O)c1` (centres undefined): the cytotoxicity at 70.5 h worked out at 2.48%.

Regarding `O=C(NCCCF)N1CCC(n2ccc(C(F)(F)F)n2)CC1`, the cytotoxicity at 70.5 h was -104%.

For `O=C(NCC1CC1)c1cc(Cl)c2c(c1)OCCCO2`, the cytotoxicity at 70.5 h was determined as 8.95%.

`CCC(=O)N1CCC(Cc2nccnc2Nc2ccccn2)CC1`: the cytotoxicity at 70.5 h was found to be 20.4%.

With `Cc1nc(-c2cccnc2)ncc1C(=O)N1CCC(C(C)N(C)C)CC1` (centres undefined), the cytotoxicity at 70.5 h was -2.91%.

As to `Cc1nc(C2(NCC(=O)NCc3cccs3)CCCCC2)no1`, the cytotoxicity at 70.5 h was -2.14%.

In the case of `CN1C(=O)CC(C(=O)O)C12CCN(Cc1cc(Cl)ccc1F)CC2` (centres undefined), the cytotoxicity at 70.5 h was determined as 8.5%.

Take `Cc1cccc(NC(=O)N2CCN(Cc3nnc(C(C)C)o3)CC2)c1`: the cytotoxicity at 70.5 h was -7.45%.

Consider `CCc1nc2n(n1)CC(NCc1noc(-c3ccc(C)cc3)n1)CC2` (centres undefined), for which the cytotoxicity at 70.5 h was 0.731%.

In the case of `N#Cc1ccc(CN2CCc3sccc3C2)c(F)c1`, the cytotoxicity at 70.5 h was -1.03%.

Consider `CC(C)c1ncncc1C(=O)N1CCN(Cc2cccnc2)CC1`, for which the cytotoxicity at 70.5 h was -6.82%.

`c1ccc(-c2nnc([C@H]3CCN(C4CCC4)C3)o2)cc1`: the cytotoxicity at 70.5 h worked out at 0.134%.

Take `Cc1cc(C(=O)NCc2ccc(-c3n[nH]cc3C(=O)N(C)C)cc2)on1`: the cytotoxicity at 70.5 h was -2.38%.

As to `O=S(=O)(CCc1ccccc1Cl)CC(O)CO` (centres undefined), the cytotoxicity at 70.5 h is -0.491%.

In the case of `c1ccc2c(NC3CCc4ncnn4C3)ncnc2c1` (centres undefined), the cytotoxicity at 70.5 h is -4.29%.

As to `Cc1cnn(C2CN(c3nc(C)cc(N(C)C)n3)C2)c1`, the cytotoxicity at 70.5 h was determined as 0.987%.

Take `O=C(Nc1ccccc1)N1C[C@@H]2OCCN(C(=O)c3ccco3)[C@@H]2C1`: the cytotoxicity at 70.5 h was -0.595%.

With `O=C(NCc1ccccn1)[C@H]1COC[C@H]2CN(C3CCCC3)C[C@H]21`, the cytotoxicity at 70.5 h stood at 40.2%.

Regarding `COC(=O)NCC(=O)NC1CC(C)(C)Cc2oc(C)cc21` (centres undefined), the cytotoxicity at 70.5 h came to 1.57%.

With `CCOC(=O)c1nc(CN2CCN(C(=O)NC3CCCCC3)CC2)cs1`, the cytotoxicity at 70.5 h was -7.73%.

On to `CC(=O)N1CCN(C(=O)CN(C)c2ccc(Cl)cn2)CC1`, for which the cytotoxicity at 70.5 h is -10.3%.

Take `O=C(c1ccoc1)N1CCC(NCc2ccccc2-n2ccnc2)CC1`: the cytotoxicity at 70.5 h worked out at 9.01%.

On to `COCCC(Cc1cccc(Br)c1)C(=O)NCC(N)=O` (centres undefined), for which the cytotoxicity at 70.5 h was -9.6%.

On to `CNc1nc(C2CCCCN2C(=O)COC)nc2c1CN(C)CC2` (centres undefined), for which the cytotoxicity at 70.5 h is -9.52%.

For `CCc1nc(Cn2ccnc2-c2nccn2C)no1`, the cytotoxicity at 70.5 h was -7.78%.

Regarding `O=C(c1cscn1)N1C[C@@H](Oc2cccnc2)[C@H]2OCCC[C@H]21`, the cytotoxicity at 70.5 h came out at 26.4%.

As for `CCN1CCC2(CC1)C(=O)Nc1ccc(C(=O)NC)cc12`, the cytotoxicity at 70.5 h amounted to 4.51%.

Take `COc1ccc(C#N)cc1CSCCN1CCOCC1`: the cytotoxicity at 70.5 h was -9.88%.

On to `CC(c1nccs1)N(C)S(=O)(=O)NCc1ccccc1` (centres undefined), for which the cytotoxicity at 70.5 h was determined as 25.4%.

Take `CC(C1CC1)N(CC(=O)NC(=O)NC1CC1)C1CC1` (centres undefined): the cytotoxicity at 70.5 h was -3.17%.

On to `COCc1nc(C)cc(Nc2ccc3c(c2)CC(=O)N3)n1`, for which the cytotoxicity at 70.5 h was -7.41%.

For `O=C(c1ccco1)N1CCO[C@@H]2CNC[C@@H]21`, the cytotoxicity at 70.5 h is -6.25%.

Take `CC(C)OCCN1CCN(C(=O)c2cccc(CC#N)c2)CC1`: the cytotoxicity at 70.5 h is -12%.

For `Cc1cc(C)nc(N2CCN(C(=O)c3ccc(C4CCCO4)s3)CC2)n1` (centres undefined), the cytotoxicity at 70.5 h was -11.5%.

For the compound `CCc1ccc(NS(=O)(=O)c2cc3c(c(C(=O)O)c2)OCCO3)cc1`, the cytotoxicity at 70.5 h was -0.0386%.

On to `CC(C)=CCN1C(=O)[C@H]2CC[C@@H]1CN(Cc1cccnc1N)C2`, for which the cytotoxicity at 70.5 h was -4.57%.

With `Cc1nc(C)n(CC2CN(Cc3cccs3)Cc3nccn3C2)n1` (centres undefined), the cytotoxicity at 70.5 h was -0.931%.

Consider `c1ccc(-c2cnn3cc(CN4CCC5(CCO5)CC4)cnc23)cc1`, for which the cytotoxicity at 70.5 h is 1.13%.

`O=C1CCN(C(=O)C2(c3ccc(F)cc3)CCOCC2)CCN1`: the cytotoxicity at 70.5 h was -8.05%.

In the case of `O=C(CN1C(=O)CCC1=O)N1CCOC2(CCOCC2)C1`, the cytotoxicity at 70.5 h turned out to be 29.6%.

Regarding `COCCN(Cc1cccc(C#N)c1)Cc1nnsc1Cl`, the cytotoxicity at 70.5 h came to 23%.

For `Cn1nc2c(cc1=O)CN(CC1CCCCO1)CC2` (centres undefined), the cytotoxicity at 70.5 h is -2.64%.

For the compound `Cc1ccoc1C(=O)N1CC(C(=O)N2CCOCC2)C2(CCOCC2)C1` (centres undefined), the cytotoxicity at 70.5 h was 15.4%.

With `COc1ccc2c(O)c(NC(=O)NCC3CC3)cnc2c1`, the cytotoxicity at 70.5 h was determined as 9.51%.

On to `COc1ccc(O[C@H]2COCCN(Cc3cccc4c3OCO4)C2)cc1`, for which the cytotoxicity at 70.5 h was 3.63%.

With `CCN(CC)c1nc2sc(C(=O)NCC(=O)OC)cc2s1`, the cytotoxicity at 70.5 h was determined as 19.9%.

For `COC(=O)[C@H](C)NC(=O)c1cnc(Cc2ccc(F)cc2)s1`, the cytotoxicity at 70.5 h is -0.425%.

Regarding `O=C1NCCO[C@H]2CN(C(=O)CC3Cc4ccccc4C3)CC[C@@H]12`, the cytotoxicity at 70.5 h is -9.87%.

On to `CC(=O)N1CCC(c2nc3ccc(NC4CCC4)cn3n2)CC1`, for which the cytotoxicity at 70.5 h is -5.56%.

Consider `O=C(NCCNS(=O)(=O)c1cc(F)cc(F)c1)c1ccoc1`, for which the cytotoxicity at 70.5 h was -8.89%.

`CC(C)CN1CCS(=O)(=O)[C@@H]2CCN(S(=O)(=O)c3ccccc3)CC[C@@H]21`: the cytotoxicity at 70.5 h was -1.95%.

On to `CCc1nnc(Nc2cc(C)nc(C3CCN(c4ncccn4)C3)n2)s1` (centres undefined), for which the cytotoxicity at 70.5 h worked out at 3.49%.

Consider `CSc1ccccc1C(=O)NCc1cc2n(n1)CCCN(CC(C)C)C2`, for which the cytotoxicity at 70.5 h came out at 22.5%.

Consider `Cc1cccc(Nc2nccnc2C2CCCN2CC(=O)N(C)C)n1` (centres undefined), for which the cytotoxicity at 70.5 h was found to be 18.8%.

`CCSc1ncc(CN2CCN(c3nc(C)ncc3C)CC2)cn1`: the cytotoxicity at 70.5 h is -11.5%.

Regarding `CCCc1cncnc1N1CCC2(CCC(=O)N(CCOC)C2)CC1`, the cytotoxicity at 70.5 h turned out to be 13.2%.

Take `CN(Cc1ccccc1)c1ncccc1CNC(=O)c1ccnn1C`: the cytotoxicity at 70.5 h is -10.4%.

Regarding `Cc1cnn(C2CN(Cc3ccc4c(c3)OCCO4)C2)c1`, the cytotoxicity at 70.5 h is -10.6%.

With `O=C(c1ncccc1O)N1CCN(Cc2ccco2)C(CCO)C1` (centres undefined), the cytotoxicity at 70.5 h is -11.1%.

As for `CCn1nccc1CNc1[nH]cnc2nncc1-2`, the cytotoxicity at 70.5 h was -20.2%.

With `O=C(NCc1ccccc1CO)Nc1ccc2c(c1)CCO2`, the cytotoxicity at 70.5 h was found to be 7.29%.

With `CN(Cc1cccnc1)Cc1cncc2c1CCN(Cc1ccoc1)C2`, the cytotoxicity at 70.5 h was -7.08%.

Take `Cc1ccsc1CCNC(=O)CCC1CCCCN1C` (centres undefined): the cytotoxicity at 70.5 h was -15%.

`CC(=O)Nc1nc(C2CCN(CC(N)=O)CC2)cs1`: the cytotoxicity at 70.5 h was -3.74%.

As to `CN1C(=O)CC(C(=O)O)C12CCN(Cc1ccc(Cl)c(F)c1)CC2` (centres undefined), the cytotoxicity at 70.5 h came to 9.92%.

For `O=C(NCc1ccon1)Nc1cc(F)ccc1N1CCCCC1`, the cytotoxicity at 70.5 h was 0.987%.

In the case of `CC(=O)Nc1sc2c(c1C(=O)O)CCc1ccccc1-2`, the cytotoxicity at 70.5 h is -11.4%.
